Measured values published in publication PMC10227015, “From a drug repositioning to a structure-based drug design approach to tackle acute lymphoblastic leukemia” (Nature Communications, 2023).
pKd: −log10 of the molar value. Several values for one entry are separate records, joined by “and”; a condition that tells them apart may be missing. Equal entries are not always repeated. Values belong to the molecule of their own block, whether it stands above or below them.

Experiments:
CCRF-CEM cells [1] = assay: Nucleotides pool measurements; assay type: cell-based, human; details: 24 h, dT 200 µM, dC 1 µM, OR0642 1 µM
Protocol: CCRF-CEM cells exposed to compounds (dT (200 µM) and/or dC, OR0642, DI-87 and DI-39 (1 µM)) for 0 and 24 h were washed, counted and pelleted. Pellets were extracted with the cold sampling solution (acetonitrile (4) / methanol (4)/125 mM formic acid (2)), vortexed and placed 1 h at −20 °C. Then centrifuged and evaporated. Central metabolites were separated on an ionic chromatography column IonPac AS11 (250 × 2 mm i.d.; Dionex). Solvent used was KOH at a flow rate of 350 µl/min. The column was then equilibrated for 6 min at the initial conditions before the next sample was analyzed. The volume of injection was 15 µl. High-resolution experiments were performed with an ICS5000+, ion chromatography system (Dionex) system coupled to an Orbitrap Qexactive+ mass spectrometer (Thermo Fisher Scientific, Waltham) equipped with a heated electrospray ionization probe. MS analyses were performed in negative FTMS mode at a resolution of 140,000 (at 400 m/z) in full-scan mode, with the following source parameters: 325 °C for the capillary temperature, 380 °C for the source heater temperature, 50 a.u. (arbitrary unit) for the sheath gas flow rate, 5 a.u. for the auxiliary gas flow rate, 50% for the S-Lens RF level, and 2.75 kV for the source voltage. Metabolites were determined by extracting the exact mass with a tolerance of 5 ppm. Each experiment was performed three times.

CCRF-CEM cells [2] = assay: γH2A.X measurements (DNA damage); assay type: cell-based, human; details: 24 h, dT 200 µM, others 1 µM, presence of dC
Protocol: (§1) CCRF-CEM cells were seeded at 100,000 cells/ml, and treated with DMSO (0.01%) as vehicle control or dT (200 μΜ), and/or dC, OR0642, DI-87 and DI-39 (1 μΜ). For cell cycle analysis, cells were harvested after 24 h, fixed in 4% paraformaldehyde, permeabilized with 0.15% Triton X100, and DNA content was determined using 1 μg/ml DAPI. For apoptosis assay, cells were harvested after 72 h and cell death was assayed using Annexin V-APC and 7AAD following manufacturer’s instructions (Biolegend, 640930). For γH2A.X measurements, cells were harvested after 24 h, fixed in 4% paraformaldehyde and permeabilized with 0.15% Triton X100. Then, cells were stained with the phospho-H2AX (pS139 H2AX, Biolegend, 613402, 1:1000) specific primary antibody, Alexa-Fluor 488 secondary antibody (ThermoFisher, A21202, 1:1000) and DAPI. All acquisitions were performed on a BD Fortessa cytometer, and analysis of flow cytometry data was performed using FlowJo™ Software 10.7.1 (BD Life Sciences). Each experiment was performed three times. Figures exemplifying the gating strategy are provided in the Supplementary Information (Supplementary Figs. 29–31).
Cells were seeded, treated and stained as described for flow cytometry analysis, and then spread on a microscope slide using cytospin. Slides were mounted with […] mounting medium with DAPI (Vector Laboratories). […]

CCRF-CEM cells [3] = assay: Annexin V apoptosis assay; assay type: cell-based, human; details: 72 h, dT 200 µM, others 1 µM, presence of dC
Protocol: as §1

[4] = tested on: human CCRF-CEM T-ALL cell line expressing luciferase; assay: Systemic leukemia model: NSG mice inoculated intravenously with luciferase CCRF-CEM cells; assay type: in vivo, mouse; set-up: hCD45+ populations determined by flux cytometry at day 21 of CCRF-CEM bearing mice / Whole body radiance of CCRF-CEM bearing mice: unit not given here; details: for effect on leukemic progression: dT 1.5 g/kg, OR0642 40 mg/kg IP; for Whole body radiance of CCRF-CEM bearing mice / hCD45+ populations determined by flux cytometry at day 21 of CCRF-CEM bearing mice / Whole body radiance at day 21 of CCRF-CEM bearing mice / Survival days of CCRF-CEM bearing mice: dT 1,5 g/Kg, OR0642 40 mg/Kg; for hCD45+ populations determined by flux cytometry at day 21 of CCRF-CEM bearing mice: day 21, blood; for Whole body radiance at day 21 of CCRF-CEM bearing mice: day 21, individual mice (Figure 4d);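 for hCD45+ populations determined by flux cytometry at day 21 of CCRF-CEM bearing mice: Bead-counted human ALL blasts per volume of peripheral blood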
dCK-C3S-S74E = assay: Isothermal titration calorimetry (ITC); assay type: binding, human; details: 25 °C
Chain of dCK-C3S-S74E (P27707 whole entry S74E, form open): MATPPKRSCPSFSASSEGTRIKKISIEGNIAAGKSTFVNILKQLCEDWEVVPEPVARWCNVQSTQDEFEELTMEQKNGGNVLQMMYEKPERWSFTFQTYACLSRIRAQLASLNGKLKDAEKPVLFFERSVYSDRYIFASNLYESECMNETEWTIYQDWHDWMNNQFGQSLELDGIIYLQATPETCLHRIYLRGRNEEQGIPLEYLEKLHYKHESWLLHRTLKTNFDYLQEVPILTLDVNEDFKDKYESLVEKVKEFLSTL
Excerpt: BL21 pRIL Escherichia coli cells were transformed with dCK-plasmids (dCK-C4S-S74E (for crystallization assays) and dCK-C3S-S74E (for TSA, enzymatic and ITC assays)). Protein dCK-C4S-S74E used for crystallization assays contained four mutations in order to generate better quality crystals (four solvent-exposed cysteine residues were mutated to serine; C9S, C45S, C59S and C146S). Protein dCK-C3S-S74E used for other assays contained only three mutated cysteines. The S74E mutation mimics the phosphorylated state of this serine, which favors the open conformation of the enzyme, making it competent for nucleoside binding[45] to evaluate the binding affinity with compounds. E. coli cells were grown in LB media containing 100 μg/ml ampicillin and 34 μg/ml chloramphenicol at 18 °C for 20 h after induction with 1 mM IPTG.
For binding assays (TSA, ITC and crystallography) cells were re-suspended in 50 mM TRIS, pH 8, 500 mM NaCl, 30 mM imidazole and 10% glycerol buffer and one EDTA free anti-protease tablet was added (Roche). After sonication and centrifugation (30,000 × g), the supernatant was loaded on a 5 ml HisTrap FF column (GE healthcare) pre-equilibrated with resuspension buffer. Protein was then eluted by resuspension buffer containing 500 mM imidazole. Protein eluted fractions were mixed and concentrated. […]

Structure (SMILES): CCCN(c1nc(-c2nc(N)cc(N)n2)cs1)c1cc(-c2ccc(S(=O)(=O)N3CCN(C)CC3)cc2C(F)(F)F)ccc1C [OR0642]
effect on nucleotide pools (CCRF-CEM cells [1]): did not affect the nucleotide pools | DNA damage, γH2A.X (CCRF-CEM cells [2]): neither dT nor OR0642 alone induced DNA damage or apoptosis | apoptosis, Annexin V staining (CCRF-CEM cells [3]): neither dT nor OR0642 alone induced DNA damage or apoptosis | effect on leukemic progression [4]: did not show any antiproliferative effect | Whole body radiance of CCRF-CEM bearing mice ([4]; day 0 (before treatment), individual mice, 40 mg/kg): 1948 and 1585 and 1112 and 1289 and 1143 and 2120 and 1563 and 1766 and 1453 | Whole body radiance of CCRF-CEM bearing mice ([4]; day 7, individual mice, 40 mg/kg): 5130 and 1470 and 1540 and 826 and 1990 and 2090 and 4750 and 1530 and 2610 | Whole body radiance of CCRF-CEM bearing mice ([4]; day 14, individual mice, 40 mg/kg): 392000 and 24500 and 395000 and 489000 and 137000 and 327000 and 469000 and 291000 and 53900 | hCD45+ populations determined by flux cytometry at day 21 of CCRF-CEM bearing mice ([4]; individual mice, 40 mg/kg): 216.1 and 194.2 and 86.4 and 80.1 and 74.9 and 211.8 and 120.7 and 113.3 and 112.2 | Whole body radiance of CCRF-CEM bearing mice ([4]; day 21, individual mice (Figure 4b), 40 mg/kg): 2070000 and 4600000 and 1490000 and 6950000 and 1760000 and 5460000 and 5470000 and 5010000 and 3010000 | Whole body radiance at day 21 of CCRF-CEM bearing mice ([4]; 40 mg/kg): 2180000 and 4850000 and 1550000 and 7340000 and 1840000 and 5680000 and 5590000 and 4590000 and 3150000 | Survival days of CCRF-CEM bearing mice ([4]; individual mice, 40 mg/kg): 25 days and 26 days and 27 days

pKd (dCK-C3S-S74E): 6.89
Structure (SMILES): Cc1ccc(NC(=O)c2ccc(CN3CCN(C)CC3)cc2)cc1Nc1nc(-c2nccc(N)n2)cs1 [dCKi1]

pKd (dCK-C3S-S74E): 7.43
Structure (SMILES): Cc1ccc(NC(=O)c2ccc(CN3CCN(C)CC3)cc2)cc1Nc1nc(-c2nc(N)cc(N)n2)cs1 [dCKi2, N-(3-((4-(4,6-diaminopyrimidin-2-yl)thiazol-2-yl)amino)-4-methylphenyl)-4-((4-methylpiperazin-1-yl)methyl)benzamide]

Structure (SMILES): Cc1cn([C@H]2C[C@H](O)[C@@H](CO)O2)c(=O)[nH]c1=O [dT, thymidine]
effect on nucleotide pools (CCRF-CEM cells [1]): increased the dTTP pool | DNA damage, γH2A.X (CCRF-CEM cells [2]): neither dT nor OR0642 alone induced DNA damage or apoptosis | apoptosis, Annexin V staining (CCRF-CEM cells [3]): neither dT nor OR0642 alone induced DNA damage or apoptosis | effect on leukemic progression [4]: scarcely reduced leukemic progression | Whole body radiance of CCRF-CEM bearing mice ([4]; day 0 (before treatment), individual mice): 2430 and 1179 and 1269 and 2044 and 1251 and 1181 and 1090 | Whole body radiance of CCRF-CEM bearing mice ([4]; day 7, individual mice): 1580 and 1140 and 2350 and 2150 and 1440 and 1960 and 2210 | Whole body radiance of CCRF-CEM bearing mice ([4]; day 14, individual mice): 94100 and 37700 and 196000 and 167000 and 8080 and 182000 and 106000 | hCD45+ populations determined by flux cytometry at day 21 of CCRF-CEM bearing mice ([4]; individual mice): 24.2 and 22.7 and 31.6 and 8.9 and 23.4 and 14.2 | Whole body radiance of CCRF-CEM bearing mice ([4]; day 21, individual mice (Figure 4b)): 1150000 and 1620000 and 2390000 and 1910000 and 1880000 and 520000 and 953000 | Whole body radiance at day 21 of CCRF-CEM bearing mice [4]: 1720000 and 2530000 and 2010000 and 1980000 and 545000 and 1000000 and 1210000 | Survival days of CCRF-CEM bearing mice ([4]; individual mice): 28 days and 29 days and 30 days
